Assay results as given in patent publication US11274324B2, “Engineering polyketide synthase in cyanobacteria” (The Regents of the University of California, priority 2019, dated 2022).

Experiments:
[1] = test system: S. elongatus recombinant strain MatB F pfm (module IIA); assay: Bioconversion assay, MBE production at different theophylline concentrations; format: cell-based, Synechococcus elongatus
Method: FIGS. 6A-6B show MBE biosynthesis by recombinant MatB F pfm and MatB B6 pfm cyanobacterial strains induced with different theophylline concentrations.
The two strains containing module IA (MatB) for methylmalonyl-CoA biosynthesis, modules IIA or IIB for T7 RNAP and Sfp expression, and module III for the Mas and accessory enzyme expression were analyzed. In addition, strains without the module III and a wild type strain were comprised as negative controls. For the bioconversion assays the strains were induced with theophylline 2 mM and 24 h later supplemented with 10 mM methylmalonate, 0.25 mM n-octanol and labeled with 2 μCi ^14C-acetate (58.9 mCi/mmol, PerkinElmer). After addition of the precursors the cultures were grown for 48 h, the in vivo synthesis of MBE was analyzed on total lipid extractions from each culture by TLC fractionation and autoradiography (FIGS. 3A-3B). Additional control bioconversion assays were carried out in the absence of either or both precursors, and labeled MBE synthesized by the E. coli strain RQ1 used as a standard (Menendez-Bravo et al. 2014). […]

[2] = test system: theophylline dependent riboswitch F; assay: Inducible T7 expression system, PT7-YFP reporter fluorescence; format: cell-based, S. elongatus; details: mutated PconII*
Method: (§1) FIGS. 2A-2B show characterization of inducible T7 expression systems in S. elongatus at different theophylline concentrations. The expression of the T7RNAP was driven by a mutated PconII* and was translationally controlled by riboswitch B (FIG. 2A) or riboswitch F (FIG. 2B). YFP fluorescence served as an easily readable output. Three independent strains were analyzed for each construct and error bars indicate standard deviations of the replicates.
(§2) To establish a functional and inducible T7RNAP based expression system for S. elongatus, devices were constructed where the transcription of the T7 RNA polymerase was driven by the conII promoter and its translation was controlled by either the theophylline dependent riboswitches B or F (Ma et al 2014). […] Thus, the potentiality of these regulatory devices when using a TRNAP expression system in S. elongatus was studied. Initially, the inventors constructed a reporter device in which the YFP reporter gene was driven by the PT7 and the T7RNAP expression was left under the control of a PconII-riboswitch (B or F). Both the T7RNAP expression systems and the reporter PT7-YFP were independently integrated at NS1 and NS2 of S. elongatus chromosome (Clerico et al 2007).

[3] = test system: theophylline dependent riboswitch B; assay: as above; format: cell-based, S. elongatus; details: mutated PconII*
Method: as §1, §2

[4] = test system: S. elongatus AMC2302 wild type; assay: Cell toxicity analysis of precursors; format: cell-based, Synechococcus elongatus; details: final concentration of 1 mM; preliminary analyses, FIG. 12A
Method: FIGS. 12A-12B show cell toxicity analysis to determine the optimal concentration of precursors. FIG. 12A is an image showing cell growth after addition of substrate. Methylmalonate (me-malonate) and propionate were added to S. elongatus AMC2302 wild type at different concentrations: 0, 1, 5, 10, 15, and 20 mM. Each column is a duplicate of the experiment. FIG. 12B is an image showing cell growth after addition of substrate. n-octanol was added to S. elongatus AMC2302 wild type at different concentrations: 0.125, 0.25, 0.5, 1, 2, and 0 mM. Each column is a duplicate (FIG. 12A), or triplicate of the experiment (FIG. 12B).
While module I was constitutively expressed from Peonn (Elledge and Davis et al. 1989; Taton et al. 2014), the expression and activation of module III depended on the expression of the T7 RNAP and Sfp placed in downstream PconII and under the translational control of theophylline inducible riboswitches. The biosynthesis of methylmalonyl-CoA required methylmalonate (module IA) or propionate (module IC) as substrates, and the transesterification of the ACP-bound MBFA required an alcohol substrate (n-octanol) to produce MBE as the final product. Cell toxicity analysis with methylmalonate, propionate and n-octanol were carried out to determine the optimal concentration of these precursors. (FIG. 12). […]

S. elongatus = details: at low concentrations; previously reported; cited from earlier work

With `Cn1c(=O)c2[nH]cnc2n(C)c1=O` [theophylline] the “effect on cell viability” value ([1]; 8 mM theophylline) was “detrimental to cell viability”, the “theophylline concentration reaching high levels of MBE production” value ([1]; module IIA, methylmalonate 10 mM, n-octanol 0.25 mM) was 4 mM and the “concentration of theophylline needed to reach maximal fluorescence” value [2] was 1 mM. The “concentration of theophylline needed to reach maximal fluorescence” value [3] was 2 mM.
In the case of `CCC(=O)O` [propionate], the “toxicity for S. elongatus” value [4] is listed as “not toxic” and the “toxicity for S. elongatus” value (S. elongatus) is listed as “toxic”.
